Literature values as cited in patent US11559510B2, “Isoflavonoid composition with improved pharmacokinetics” (NOXOPHARM LIMITED, priority 2016, dated 2023).

Conditions: cited from earlier work

In the case of `Oc1ccc(C2=Cc3ccc(O)cc3OC2)cc1` [Idronoxil, 2H-1-Benzopyran-7-0,1,3-(4-hydroxyphenyl)], the plasma elimination half-life (bolus IV administration) is listed as “short”, the “time after administration at which free idronoxil is detected in plasma” value (given orally, most patients) is listed as ≤ 30 min and the absolute oral bioavailability (given orally) is listed as “low”. For the same molecule, the “blood levels readily attained” value (humans treated both orally and intravenously) was 50 µM.
